Two molecules from patent US12150975B2, “Therapeutic combinations to treat red blood cell disorders” (HARTIS-PHARMA SA, priority 2016, dated 2024) can be followed below.

Holding throughout (type): cell-based, human
Experiment [1] concerns RBC from healthy subjects. Put plainly: Reactive oxygen species (ROS) in RBC measured as Median Fluorescence Intensity by flow cytometry. The settings on record: 20 min incubation. The method, then: Blood was collected from four healthy control subjects using citrate as anticoagulant. After low speed centrifugation, the RBC pellet was washed with isotonic phosphate buffered saline (PBS) and re-suspended in PBS (hematocrite 20%). The RBC were prepared as described in Example 7 and the effect of HDL with or without lutein on the oxidative stress status of RBC was determined using RBC from healthy subjects incubated for 20 min in presence of 100 μM HDL isolated from human plasma (Sigma ref L-1567) in presence or absence of 1 μM or 10 μM lutein (Bertin pharma ref. 1001081). Reactive oxygen species (ROS) were measured as Median Fluorescence Intensity (MFI) by flow cytometry similarly to Amer et al., 2003, Eur J Haematol, 70(2):84-90.

In experiment [2] the test system is RBC from healthy control. As to the kind of experiment: RBC sensitivity to cholesterol depletion: hemolysis and membrane deformability by ektacytometry, healthy RBC. The settings on record: 10 mM methyl-beta-cyclodextrine, 20 min at 37° C. As for the experimental part: (§1) Blood was collected from four healthy control subjects using citrate as anticoagulant. After low speed centrifugation, the RBC pellet was washed with isotonic phosphate buffered saline (PBS) and re-suspended in PBS (hematocrite 20%).
(§2) To confirm the difference in membrane cholesterol in RBC from SCD compared to healthy subjects, RBC's sensitivity to the cholesterol depleting agent methyl-beta-cyclodextrine was assessed. RBCs were incubated for 20 min at 37° C. in the presence of 2.5 mM or 10 mM methyl-beta-cyclodextrine (Sigma ref. C4555-5G) as described by Motayama et al., 2009, Biol. Pharm. Bull., 32(4) 700-705. RBC membrane deformability was assessed by ektacytometry (Mechatronics) as described by Renoux et al., 2016, Clin Hemorheol Microcirc., 62(2):173-9 at shear rate of 3 Pa and 30 Pa.

Experiment [3] relates to RBC from SCD subjects. As to the kind of experiment: RBC sensitivity to cholesterol depletion: hemolysis and membrane deformability by ektacytometry, SCD RBC. The settings on record: 10 mM methyl-beta-cyclodextrine, 20 min at 37° C., RBC from 4 SCD subjects. As for the experimental part: as §1, §2

With `CC1=C[C@H](O)CC(C)(C)[C@H]1/C=C/C(C)=C/C=C/C(C)=C/C=C/C=C(C)/C=C/C=C(C)/C=C/C1=C(C)C[C@@H](O)CC1(C)C` [Lutein, lutein], in experiment [1] (1 μM lutein), the “decrease in ROS” value stood at 9.2%. For the same molecule, in experiment [1] (Lutein 1 μM), the “% change in ROS MFI vs control” value was −9.2% and the “mean MFI (ROS)” value amounted to 38.3. In addition, in experiment [1] (Lutein 10 μM), the “% change in ROS MFI vs control” value is on record as −36.4% and the “mean MFI (ROS)” value was determined as 26.8.
For the molecule methyl-beta-cyclodextrine, the hemolysis result in experiment [2] is listed as “marked hemolysis”. In addition, in experiment [2] (ektacytometry at 3 Pa and 30 Pa), the RBC deformability entry is “significant decrease”. Also, the “cholesterol depleting effect and resulting hemolysis” value in experiment [3] is reported as “resistant”.
